Patent US10758534B2 (Vertex Pharmaceuticals Incorporated, priority 2014, dated 2020)

What follows are molecules tested against T1, F508del (Homo sapiens, UniProt P13569, DEL508-508) (assay: Protocol 2: FRET membrane potential optical assay (VIPR), identification of correction compounds). Details: Table 3; compounds of Table 1 as modulators of CFTR activity; protocol not stated.
T1 construct: expressed in transfected cells
Format: cell-based
Summary of the method: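 NIH3T3 mouse fibroblasts stably expressing F508del were treated with test compound for 16 hrs at 37° C. in serum-free medium; 27° C. incubation served as positive control. F508del was activated with 10 μM forskolin plus 20 μM genistein in Cl^−-free medium, and Cl^− efflux-driven depolarization was read by DiSBAC2(3)/CC2-DMPE FRET.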

T1 sequence (P13569 with tags, fused parts or gaps DEL508-508): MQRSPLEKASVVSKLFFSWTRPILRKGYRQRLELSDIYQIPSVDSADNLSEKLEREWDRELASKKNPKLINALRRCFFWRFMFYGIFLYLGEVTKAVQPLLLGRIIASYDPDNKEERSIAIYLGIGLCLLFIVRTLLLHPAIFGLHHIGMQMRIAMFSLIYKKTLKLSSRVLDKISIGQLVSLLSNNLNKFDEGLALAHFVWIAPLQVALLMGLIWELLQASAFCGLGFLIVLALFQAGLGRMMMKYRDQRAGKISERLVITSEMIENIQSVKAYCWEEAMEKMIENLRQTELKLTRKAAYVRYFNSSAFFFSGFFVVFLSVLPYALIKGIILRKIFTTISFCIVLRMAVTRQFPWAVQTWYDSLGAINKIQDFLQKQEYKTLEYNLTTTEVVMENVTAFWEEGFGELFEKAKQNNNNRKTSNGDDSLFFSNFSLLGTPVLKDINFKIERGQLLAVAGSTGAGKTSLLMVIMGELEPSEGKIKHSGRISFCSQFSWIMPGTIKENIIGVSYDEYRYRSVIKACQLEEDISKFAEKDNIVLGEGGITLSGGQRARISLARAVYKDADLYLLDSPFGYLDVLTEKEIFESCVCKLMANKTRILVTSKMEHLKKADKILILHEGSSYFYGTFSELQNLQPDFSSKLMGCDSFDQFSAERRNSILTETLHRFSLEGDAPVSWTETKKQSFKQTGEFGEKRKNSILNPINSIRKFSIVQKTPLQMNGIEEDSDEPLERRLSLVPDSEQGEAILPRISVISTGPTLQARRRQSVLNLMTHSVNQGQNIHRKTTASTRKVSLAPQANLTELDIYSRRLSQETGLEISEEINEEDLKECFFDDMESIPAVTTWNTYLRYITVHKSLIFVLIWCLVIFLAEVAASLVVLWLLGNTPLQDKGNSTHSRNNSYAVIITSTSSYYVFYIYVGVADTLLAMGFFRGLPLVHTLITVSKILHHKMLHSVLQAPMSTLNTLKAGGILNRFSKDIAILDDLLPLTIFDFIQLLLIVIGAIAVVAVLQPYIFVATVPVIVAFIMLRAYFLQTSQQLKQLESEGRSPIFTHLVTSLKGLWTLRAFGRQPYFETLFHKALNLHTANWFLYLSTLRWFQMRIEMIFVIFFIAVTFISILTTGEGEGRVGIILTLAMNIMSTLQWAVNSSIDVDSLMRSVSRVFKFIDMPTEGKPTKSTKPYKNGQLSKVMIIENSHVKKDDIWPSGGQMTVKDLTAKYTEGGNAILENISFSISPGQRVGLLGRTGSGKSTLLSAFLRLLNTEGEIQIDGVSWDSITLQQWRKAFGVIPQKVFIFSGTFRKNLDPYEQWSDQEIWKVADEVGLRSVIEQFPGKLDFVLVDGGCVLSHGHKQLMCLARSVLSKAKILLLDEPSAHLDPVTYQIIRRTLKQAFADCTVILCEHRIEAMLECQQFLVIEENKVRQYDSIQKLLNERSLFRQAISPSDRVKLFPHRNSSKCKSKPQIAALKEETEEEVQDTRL

SMILES	EC30
CCOc1ccc(-c2nc(N3CC(C)CC3(C)C)c(C(=O)NS(=O)(=O)c3cccc(N)n3)cc2C)cc1 (centres unmarked) [Compound 455, N-[(6-amino-2-pyridyl)sulfonyl]-6-(4-ethoxyphenyl)-5-methyl-2-(2,2,4-trimethylpyrrolidin-1-yl)pyridine-3-carboxamide]	+++ (“+++” means <3 uM)
Cc1ccc(-c2ccc(C(=O)NS(=O)(=O)c3cccc(N)n3)c(N3CC(C)CC3(C)C)n2)cc1 (centres unmarked) [Compound 456, N-[(6-amino-2-pyridyl)sulfonyl]-6-(p-tolyl)-2-(2,2,4-trimethylpyrrolidin-1-yl)pyridine-3-carboxamide]	+++ (“+++” means <3 uM)
Cc1cc(C)c(Oc2nc(-c3cc(C(F)(F)F)nn3C)ccc2C(=O)NS(=O)(=O)c2cccc(N)n2)c(C)c1 [Compound 457, N-[(6-amino-2-pyridyl)sulfonyl]-6-[2-methyl-5-(trifluoromethyl)pyrazol-3-yl]-2-(2,4,6-trimethylphenoxy)pyridine-3-carboxamide]	+++ (“+++” means <3 uM)
CC(C)COc1cc(F)cc(-c2ccc(C(=O)NS(=O)(=O)c3cccc(N)n3)c(N3[C@@H](C)CC[C@@H]3C)n2)c1 [Compound 458, N-[(6-amino-2-pyridyl)sulfonyl]-2-[(2S,5S)-2,5-dimethylpyrrolidin-1-yl]-6-(3-fluoro-5-isobutoxy-phenyl)pyridine-3-carboxamide]	+++ (“+++” means <3 uM)
C[C@@H]1CC[C@H](C)N1c1nc(-c2ccc(Cl)cc2)ccc1C(=O)NS(=O)(=O)c1cccc(N)n1 [Compound 459, N-[(6-amino-2-pyridyl)sulfonyl]-6-(4-chlorophenyl)-2-[(2S,5R)-2,5-dimethylpyrrolidin-1-yl]pyridine-3-carboxamide]	+++ (“+++” means <3 uM)
Cc1ccnc(C)c1Oc1nc(C(C)(C)C)ccc1C(=O)NS(=O)(=O)c1cccc(N)n1 [Compound 460, N-[(6-amino-2-pyridyl)sulfonyl]-6-tert-butyl-2-[(2,4-dimethyl-3-pyridyl)oxy]pyridine-3-carboxamide]	++ (“++” means between 3 uM and 10 uM)
Cc1cc(C)c(Oc2nc(-c3cc(F)cc(OCC(C)C)c3)ccc2C(=O)NS(=O)(=O)c2cccc(C(=O)O)n2)c(C)c1 [Compound 461, 6-[[6-(3-fluoro-5-isobutoxy-phenyl)-2-(2,4,6-trimethylphenoxy)pyridine-3-carbonyl]sulfamoyl]pyridine-2-carboxylic acid]	++ (“++” means between 3 uM and 10 uM)
Cc1cc(C)c(CN2c3ccccc3C[C@@H]2C(=O)NS(=O)(=O)c2cccc(N)n2)c(C)c1 [Compound 462, (2R)—N-[(6-amino-2-pyridyl)sulfonyl]-1-[(2,4,6-trimethylphenyl)methyl]indoline-2-carboxamide]	+++ (“+++” means <3 uM)
CC(C)COc1cc(F)cc(-c2ccc(C(=O)NS(=O)(=O)C3CCNC3=O)c(N3CC(C)CC3(C)C)n2)c1 (centres unmarked) [Compound 466, 6-(3-fluoro-5-isobutoxy-phenyl)-N-(2-oxopyrrolidin-3-yl)sulfonyl-2-(2,2,4-trimethylpyrrolidin-1-yl)pyridine-3-carboxamide]	+++ (“+++” means <3 uM)
CC(C)COc1ccc(-c2ccc(C(=O)NS(=O)(=O)c3cccc(N)n3)c(N3CC(C)CC3(C)C)n2)cn1 (centres unmarked) [Compound 471, N-[(6-amino-2-pyridyl)sulfonyl]-6-(6-isobutoxy-3-pyridyl)-2-(2,2,4-trimethylpyrrolidin-1-yl)pyridine-3-carboxamide]	+++ (“+++” means <3 uM)
CC(C)COc1cc(F)cc(-c2ccc(C(=O)NS(=O)(=O)c3cccc(N)n3)c(N3CCC(Cc4ccccc4)C3)n2)c1 (centres unmarked) [Compound 473, N-[(6-amino-2-pyridyl)sulfonyl]-2-(3-benzylpyrrolidin-1-yl)-6-(3-fluoro-5-isobutoxy-phenyl)pyridine-3-carboxamide]	+++ (“+++” means <3 uM)
CC(C)COc1cc(F)cc(-c2ccc(C(=O)NS(=O)(=O)c3cccc(N)n3)c(N3CCCC3C)n2)c1 (centres unmarked) [Compound 479, N-[(6-amino-2-pyridyl)sulfonyl]-6-(3-fluoro-5-isobutoxy-phenyl)-2-(2-methylpyrrolidin-1-yl)pyridine-3-carboxamide]	+++ (“+++” means <3 uM)
CC(C)COc1cc(F)cc(-c2ccc(C(=O)NS(=O)(=O)c3ccc[nH]c3=O)c(N3CCC[C@@H](c4ccccc4)C3)n2)c1 [Compound 481, 6-(3-fluoro-5-isobutoxy-phenyl)-N-[(2-oxo-1H-pyridin-3-yl)sulfonyl]-2-[(3S)-3-phenyl-1-piperidyl]pyridine-3-carboxamide]	+++ (“+++” means <3 uM)
Cc1cc(C(=O)NS(=O)(=O)c2cccc(N)n2)c(N2[C@H](C)CC[C@@H]2C)nc1-c1cc(F)cc(OCC(C)C)c1 [Compound 483, N-[(6-amino-2-pyridyl)sulfonyl]-2-[(2R,5S)-2,5-dimethylpyrrolidin-1-yl]-6-(3-fluoro-5-isobutoxy-phenyl)-5-methyl-pyridine-3-carboxamide]	+++ (“+++” means <3 uM)

The remaining lines, values ahead:

EC30	SMILES
++ (“++” means between 3 uM and 10 uM)	Cc1cc(C)c(Oc2nc(-c3ccccc3F)ccc2C(=O)NS(=O)(=O)c2cccc(N)n2)c(C)c1 [Compound 463, N-[(6-amino-2-pyridyl)sulfonyl]-6-(2-fluorophenyl)-2-(2,4,6-trimethylphenoxy)pyridine-3-carboxamide]
+++ (“+++” means <3 uM)	CC(C)Oc1ccc(-c2ccc(C(=O)NS(=O)(=O)c3cccc(N)n3)c(N3CCC(C)C3(C)C)n2)cn1 (centres unmarked) [Compound 464, N-[(6-amino-2-pyridyl)sulfonyl]-6-(6-isopropoxy-3-pyridyl)-2-(2,2,3-trimethylpyrrolidin-1-yl)pyridine-3-carboxamide]
++ (“++” means between 3 uM and 10 uM)	Cc1cc(C)c(Oc2nc(-c3cccc(CN4CCOCC4)c3)ccc2C(=O)NS(=O)(=O)c2cccc(N)n2)c(C)c1 [Compound 465, N-[(6-amino-2-pyridyl)sulfonyl]-6-[3-(morpholinomethyl)phenyl]-2-(2,4,6-trimethylphenoxy)pyridine-3-carboxamide]
++ (“++” means between 3 uM and 10 uM)	Cc1cc(C)c(CN2C[C@H](c3ccccc3)C[C@@H]2C(=O)NS(=O)(=O)c2cccc(N)n2)c(C)c1 [Compound 467, (2R,4S)—N-[(6-amino-2-pyridyl)sulfonyl]-4-phenyl-1-[(2,4,6-trimethylphenyl)methyl]pyrrolidine-2-carboxamide]
+++ (“+++” means <3 uM)	Cc1cc(C)c(Oc2nc(C(C)(C)C)ccc2C(=O)NS(=O)(=O)c2cccc(N(C)C)n2)c(C)c1 [Compound 468, 6-tert-butyl-N-[[6-(dimethylamino)-2-pyridyl]sulfonyl]-2-(2,4,6-trimethylphenoxy)pyridine-3-carboxamide]
++ (“++” means between 3 uM and 10 uM)	CCCn1cc(-c2ccc(C(=O)NS(=O)(=O)c3cccc(N)n3)c(Oc3c(C)cc(C)cc3C)n2)cn1 [Compound 469, N-[(6-amino-2-pyridyl)sulfonyl]-6-(1-propylpyrazol-4-yl)-2-(2,4,6-trimethylphenoxy)pyridine-3-carboxamide]
+++ (“+++” means <3 uM)	COc1ccc(C)c(-c2ccc(C(=O)NS(=O)(=O)c3cccc(N)n3)c(N3CC(C)CC3(C)C)n2)c1 (centres unmarked) [Compound 470, N-[(6-amino-2-pyridyl)sulfonyl]-6-(5-methoxy-2-methyl-phenyl)-2-(2,2,4-trimethylpyrrolidin-1-yl)pyridine-3-carboxamide]
+ (“+” means greater than 10 uM)	Cc1cc(C)c(Cn2nc(C(C)(C)C)cc2C(=O)NS(=O)(=O)c2cccc(Cl)c2)c(C)c1 [Compound 472, 5-tert-butyl-N-(3-chlorophenyl)sulfonyl-2-[(2,4,6-trimethylphenyl)methyl]pyrazole-3-carboxamide]
+++ (“+++” means <3 uM)	COc1ccc2c(c1)C(C)(C(=O)NS(=O)(=O)c1cccc(N)n1)N(Cc1c(C)cc(C)cc1C)C2 (centres unmarked) [Compound 474, N-[(6-amino-2-pyridyl)sulfonyl]-6-methoxy-1-methyl-2-[(2,4,6-trimethylphenyl)methyl]isoindoline-1-carboxamide]
+++ (“+++” means <3 uM)	Cc1cc(C)c(Oc2nc(-c3cnc(N4CCCCC4)nc3)ccc2C(=O)NS(=O)(=O)c2cccc(N)n2)c(C)c1 [Compound 475, N-[(6-amino-2-pyridyl)sulfonyl]-6-[12-(1-piperidyl)pyrimidin-5-yl]-2-(2,4,6-trimethylphenoxy)pyridine-3-carboxamide]
++ (“++” means between 3 uM and 10 uM)	CC(C)Oc1ccc(-c2ccc(C(=O)NS(=O)(=O)c3cccc(N)n3)c(N3C[C@@H]4CC[C@H]3C4)n2)cn1 [Compound 476, N-[(6-amino-2-pyridyl)sulfonyl]-2-[(1R,4S)-3-azabicyclo[2.2.1]heptan-3-yl]-6-(6-isopropoxy-3-pyridyl)pyridine-3-carboxamide]
+++ (“+++” means <3 uM)	COc1c(C)cccc1-c1ccc(C(=O)NS(=O)(=O)c2cccc(N)n2)c(Oc2c(C)cc(C)cc2C)n1 [Compound 477, N-[(6-amino-2-pyridyl)sulfonyl]-6-(2-methoxy-3-methyl-phenyl)-2-(2,4,6-trimethylphenoxy)pyridine-3-carboxamide]
++ (“++” means between 3 uM and 10 uM)	CC(C)(C)c1ccc(C(=O)NS(=O)(=O)c2cccc(N)n2)c(C2=CCCCC2)n1 [Compound 478, N-[(6-amino-2-pyridyl)sulfonyl]-6-tert-butyl-2-(cyclohexen-1-yl)pyridine-3-carboxamide]
+++ (“+++” means <3 uM)	Cc1cc(C)c(CN2Cc3ccccc3C2(C)C(=O)NS(=O)(=O)c2nccnc2N)c(C)c1 (centres unmarked) [Compound 480, N-(3-aminopyrazin-2-yl)sulfonyl-1-methyl-2-[(2,4,6-trimethylphenyl)methyl]isoindoline-1-carboxamide]
+++ (“+++” means <3 uM)	Cc1cc(C)c(Oc2nc(C)ccc2C(=O)NS(=O)(=O)c2cccc(NC(C)C)n2)c(C)c1 [Compound 482, N-[[6-(isopropylamino)-2-pyridyl]sulfonyl]-6-methyl-2-(2,4,6-trimethylphenoxy)pyridine-3-carboxamide]
